# Source: patent US20180263996A1, “ARYL SULTAM DERIVATIVES AS RORc MODULATORS” (Genentech, Inc., priority 2015, published 2018)
# Target: T1, RORc (Homo sapiens, UniProt P51449)
# T1 construct: host or cells: E. coli
# T1 sequence (P51449 269-508 limits assumed): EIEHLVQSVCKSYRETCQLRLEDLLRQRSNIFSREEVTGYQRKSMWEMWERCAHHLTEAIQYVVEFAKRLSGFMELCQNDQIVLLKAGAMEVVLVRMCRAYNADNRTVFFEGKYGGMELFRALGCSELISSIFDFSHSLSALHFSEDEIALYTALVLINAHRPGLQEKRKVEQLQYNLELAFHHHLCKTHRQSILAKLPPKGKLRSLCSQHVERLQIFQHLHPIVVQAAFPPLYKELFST
# Test: In Vitro RORc Ligand Binding Assay
# Settings: IC50 values for RORc
# Description: This assay was used to determine a compound's potency in inhibiting activity of RORc by determining, Kiapp, IC50, or percent inhibition values.
# On day of the assay, 100 uL of 0.05% CHAPS (in deionized H2O) was added to all wells of the GFB Unifilter plate and allowed soak for 1 h. A wash buffer of 50 mM HEPES (pH 7.4), 150 mM NaCl, and 5 mM MgCl2 was prepared to wash the filter plate. To prepare an assay buffer, BSA was added to the wash buffer to reach 0.01% and DTT was added to reach 1 mM.
# The 20× compound stocks were diluted in DMSO with Assay Buffer 4-fold to reach 5× the final test concentration in 25% DMSO (10 uL compound+30 uL Assay Buffer). Solutions were mixed by aspiration several times with a pipette set on 50 uL volume.
# For two point screening, 10 mM stock compound solutions were diluted in DMSO to obtain 200 uM (20× the high test concentration) and then diluted 10-fold further to reach 20 uM (20× the low test concentration). The 20× stocks were diluted 4-fold with Assay Buffer (10 uL compound+30 uL Assay Buffer) to reach 5× the test concentrations (50 uM and 5 uM) and 10 uL were added to two assay plates for the duplicate wells. With each concentration tested on 2 plates, each set of 80 compounds used 4 assay plates (1 uM and 10 uM, with n=2).
# For 25-hydroxycholesterol in 25% DMSO/75% Assay Buffer; 10 uL per well was used for NSB samples. Wells for Total Binding and No Receptor sample determination contained 10 uL of 25% DMSO/75% Assay Buffer per well.
# Add 20 uL to all wells to reach 6 nM final concentration in the assay.
# Stock receptor solution was diluted in assay buffer to obtain 1.5 ug/mL in Assay Buffer. 20 uL was added to all wells. For No Receptor samples, 20 uL Assay Buffer was substituted for receptor solution.
# Assay plates were 96-well polypropylene V-bottom plates. […] 10 uL of 25% DMSO/75% Assay Buffer was added to Total Binding or No Receptor wells. 10 uL of 5 uM 25-hydroxycholesterol in 25% DMSO/75% Assay Buffer was added to NSB wells. […] 20 uL of 1.5 ug/mL RORc receptor was added to wells (or 40 uL Assay Buffer to No R wells). Following addition to the wells, the plates were incubated 3 h at 25° C.
# Using a Packard Filtermate Harvester, the filter plate were washed 4 times following transfer of the incubated samples. Plates were dry-filtered completely (2 h at 50° C. or overnight at room temperature). 50 uL Microscint 0 was added to all wells and read on Topcount protocol Inverted.
# Final concentrations were as follows: 50 mM HEPES buffer (pH 7.4); 150 mM NaCl; 1 mM DTT; 5 mM MgCl2; 0.01% BSA; 5% DMSO; 0.6 ug/mL RORc receptor; 6 nM 25-[^3H]hydroxycholesterol. For NSB wells, 1 uM 25-hydroxycholesterol was also present.
row,Structure (SMILES),IC50 [nM]
1,"CC(NC(=O)Cc1cnoc1)c1cc(F)c(CN2[C@@H](C)CC[C@H](c3ccccc3)S2(=O)=O)cc1F (stereo partly drawn) [Compound 52, N-[1-[2,5-difluoro-4-[[(3S,6R)-3-methyl-1,1-dioxo-6-phenyl-thiazinan-2-yl]methyl]phenyl]ethyl]-2-isoxazol-4-yl-acetamide]",101
2,"C[C@H]1CC[C@H](c2ccccc2)S(=O)(=O)N1Cc1cc(F)c([C@H](OC2CCOCC2)C(N)=O)cc1F [Compound 7, (2S)-2-[2,5-difluoro-4-[[(3S,6R)-3-methyl-1,1-dioxo-6-phenyl-thiazinan-2-yl]methyl]phenyl]-2-tetrahydropyran-4-yloxy-acetamide]",64.2
3,"C=CCOC1(c2cc(F)c(CN3[C@@H](C)CC[C@H](c4ccccc4)S3(=O)=O)cc2F)CC2(COC2)C1 [Compound 14, (3S,6R)-2-[[4-(6-allyloxy-2-oxaspiro[3.3]heptan-6-yl)-2,5-difluoro-phenyl]methyl]-3-methyl-6-phenyl-thiazinane 1,1-dioxide]",2.2
4,"CC(NC(=O)c1nc(N)n[nH]1)c1cc(F)c(CN2[C@@H](C)CC[C@H](c3ccccc3)S2(=O)=O)cc1F (stereo in doubt) [Compound 71, 3-amino-N-[1-[2,5-difluoro-4-[[(3S,6R)-3-methyl-1,1-dioxo-6-phenyl-thiazinan-2-yl]methyl]phenyl]ethyl]-1H-1,2,4-triazole-5-carboxamide]",47.9
5,"C[C@H]1CC[C@H](c2ccccc2)S(=O)(=O)N1Cc1cc(F)c(C23CC(C)(C2)OC3=O)cc1F [Compound 27, 4-[2,5-difluoro-4-[[(3S,6R)-3-methyl-1,1-dioxo-6-phenyl-thiazinan-2-yl]methyl]phenyl]-1-methyl-2-oxabicyclo[2.1.1]hexan-3-one]",21.7
6,"CC(NC(=O)c1cncs1)c1cc(F)c(CN2[C@@H](C)CC[C@H](c3ccccc3)S2(=O)=O)cc1F (stereo in doubt) [Compound 72, N-[1-[2,5-difluoro-4-[[(3S,6R)-3-methyl-1,1-dioxo-6-phenyl-thiazinan-2-yl]methyl]phenyl]ethyl]thiazole-5-carboxamide]",6.3
7,"C[C@H]1CC[C@H](c2ccccc2)S(=O)(=O)N1Cc1cc(F)c(C2(OCC(N)=O)CC3(COC3)C2)cc1F [Compound 12, 2-[[6-[2,5-difluoro-4-[[(3S,6R)-3-methyl-1,1-dioxo-6-phenyl-thiazinan-2-yl]methyl]phenyl]-2-oxaspiro[3.3]heptan-6-yl]oxy]acetamide]",2.3
8,"C[C@H]1CC[C@H](c2ccccc2)S(=O)(=O)N1Cc1cc(F)c([C@H](CC2COC2)C(N)=O)cc1F [Compound 4, (2S)-2-[2,5-difluoro-4-[[(3S,6R)-3-methyl-1,1-dioxo-6-phenyl-thiazinan-2-yl]methyl]phenyl]-3-(oxetan-3-yl)propanamide]",31.8
9,"Cc1cc(C(=O)NC(C)c2cc(F)c(CN3[C@@H](C)CC[C@H](c4ccccc4)S3(=O)=O)cc2F)[nH]n1 (stereo in doubt) [Compound 56, N-[1-[2,5-difluoro-4-[[(3S,6R)-3-methyl-1,1-dioxo-6-phenyl-thiazinan-2-yl]methyl]phenyl]ethyl]-3-methyl-1H-pyrazole-5-carboxamide]",107
10,"C[C@H]1CC[C@H](c2ccccc2)S(=O)(=O)N1Cc1ccc(C2(C(=O)NC3(CO)CC3)CCOCC2)cc1F [Compound 35, 4-[3-fluoro-4-[[(3S,6R)-3-methyl-1,1-dioxo-6-phenyl-thiazinan-2-yl]methyl]phenyl]-N-[1-(hydroxymethyl)cyclopropyl] tetrahydropyran-4-carboxamide]",42.9
11,"CC(NCc1cnoc1)c1cc(F)c(CN2[C@@H](C)CC[C@H](c3ccccc3)S2(=O)=O)cc1F (stereo partly drawn) [Compound 50, 1-[2,5-difluoro-4-[[(3S,6R)-3-methyl-1,1-dioxo-6-phenyl-thiazinan-2-yl]methyl]phenyl]-N-(isoxazol-4-ylmethyl)ethanamine]",22
